Key:
[1] = target: Kappa-type opioid receptor (Rattus norvegicus, UniProt P34975); test: The compound was tested for the ability to displace opioid receptor kappa specific radioligand [3H]DADLE
Cavia porcellus = species on record: Cavia porcellus; test: The compound was tested In vitro for the ability to inhibit electrically induced contractions of the guinea pig ileum; type: functional
Mus musculus = species on record: Mus musculus; test: The compound was tested In vitro for the ability to inhibit electrically induced contractions of the mouse vas deferens; type: functional
[2] = target: T1, Delta-type opioid receptor (Rattus norvegicus, UniProt P33533); test: The compound was tested for the ability to displace receptor specific radioligand [3H]DPDPE
T1 sequence (P33533 whole entry): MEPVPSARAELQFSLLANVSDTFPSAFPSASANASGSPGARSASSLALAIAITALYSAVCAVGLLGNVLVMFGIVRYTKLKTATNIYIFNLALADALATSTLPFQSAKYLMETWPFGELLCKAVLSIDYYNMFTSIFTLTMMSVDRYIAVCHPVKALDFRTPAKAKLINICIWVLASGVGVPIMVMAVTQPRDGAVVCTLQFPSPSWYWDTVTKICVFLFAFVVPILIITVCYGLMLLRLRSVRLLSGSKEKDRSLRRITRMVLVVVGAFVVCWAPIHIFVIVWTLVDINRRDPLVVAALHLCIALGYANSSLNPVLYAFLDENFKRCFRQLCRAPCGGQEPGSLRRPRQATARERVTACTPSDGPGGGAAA

[3] = target: T1, Delta-type opioid receptor; test: The compound was tested for the ability to displace opioid receptor delta specific radioligand [3H]-DSLET
Mu-type opioid receptor [4] = target: T2, Mu-type opioid receptor (Rattus norvegicus, UniProt P33535); test: The compound was tested for the ability to displace mu-receptor specific radioligand [3H]DAGO
T2 sequence (P33535 whole entry): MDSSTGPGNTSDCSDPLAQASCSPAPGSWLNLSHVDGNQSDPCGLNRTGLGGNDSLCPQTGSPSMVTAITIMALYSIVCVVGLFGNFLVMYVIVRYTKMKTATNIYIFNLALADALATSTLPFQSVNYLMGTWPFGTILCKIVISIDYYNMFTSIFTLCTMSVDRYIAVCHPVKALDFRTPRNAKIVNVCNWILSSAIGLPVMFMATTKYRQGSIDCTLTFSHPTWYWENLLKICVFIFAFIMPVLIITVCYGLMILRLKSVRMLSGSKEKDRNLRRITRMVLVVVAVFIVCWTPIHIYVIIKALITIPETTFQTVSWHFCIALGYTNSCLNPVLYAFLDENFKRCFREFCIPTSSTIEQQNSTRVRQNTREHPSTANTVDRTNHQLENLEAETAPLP

[5] = (§1) Ratio of inhibition of electrically induced contractions in GPI and MVD; type: functional
[6] = as §1
[7] = target: T1, Delta-type opioid receptor; test: The compound was tested for the ability to displace delta-receptor specific radioligand [3H]DSLET
Mu-type opioid receptor [8] = target: T2, Mu-type opioid receptor; test: The compound was tested for the ability to displace Opioid receptor mu 1 specific radioligand [3H]DAGO
[9] = target: T1, Delta-type opioid receptor; test: The compound was tested for the ability to displace delta-receptor specific radioligand [3H]DPDPE

Work on CC1(C)SSC[C@H](C(=O)O)NC(=O)[C@H](Cc2ccccc2)NC(=O)CNC(=O)[C@@H]1NC(=O)[C@@H](N)Cc1ccc(O)cc1 yielded a Ki [1] of […] and an IC50 (Cavia porcellus; Cavia porcellus, Ileum) of 1350 nM.
N[C@@H](Cc1ccc(O)cc1)C(=O)N[C@H]1C(=O)NCC(=O)N[C@@H](Cc2ccccc2)C(=O)N[C@H](C(=O)O)CSSC12CCCCC2 (stereo in doubt; 5) [listing 1 of 2 here] showed an IC50 (Mus musculus) of over 2040 nM, a Ki [2] of 15 nM and a Ki [3] of 31.3 nM. For the same molecule, the IC50 (Cavia porcellus) was 29900 nM and the Ki (Mu-type opioid receptor [4]) was 1800 nM.
Work on N[C@@H](Cc1ccc(O)cc1)C(=O)N[C@@H]1CSSC2(CCCCC2)[C@@H](C(=O)O)NC(=O)[C@H](Cc2ccccc2)NC(=O)CNC1=O yielded an IC50 (Mus musculus; Mus musculus, Vas deferens) of 0.0745 nM and an IC50 (Cavia porcellus; Cavia porcellus, Ileum) of 13.3 nM.
Work on N[C@@H](Cc1ccc(O)cc1)C(=O)N[C@@H]1CSSC2(CCCCC2)[C@H](C(=O)O)NC(=O)[C@H](Cc2ccccc2)NC(=O)CNC1=O yielded an IC50 (Mus musculus; Mus musculus, Vas deferens) of 0.0564 nM.
In the case of CC1(C)SSC[C@@H](NC(=O)[C@@H](N)Cc2ccc(O)cc2)C(=O)NCC(=O)N[C@@H](Cc2ccccc2)C(=O)N[C@@H]1C(=O)O, the Ki [1] is reported as […] and the IC50 (Cavia porcellus; Cavia porcellus, Ileum) is reported as 67 nM.
N[C@@H](Cc1ccc(O)cc1)C(=O)N[C@H]1C(=O)NCC(=O)N[C@@H](Cc2ccccc2)C(=O)N[C@H](C(=O)O)CSSC12CCCCC2 (stereo in doubt; 5) [listing 2 of 2 here] gave a Ratio [5] of under 14.7.
In the case of CC1(C)SSC[C@@H](NC(=O)[C@@H](N)Cc2ccc(O)cc2)C(=O)NCC(=O)N[C@@H](Cc2ccccc2)C(=O)N[C@H]1C(=O)O, the Ki [1] is reported as […] and the IC50 (Cavia porcellus; Cavia porcellus, Ileum) is reported as 40 nM.
With N[C@@H](Cc1ccc(O)cc1)C(=O)N[C@H]1C(=O)NCC(=O)N[C@@H](Cc2ccccc2)C(=O)N[C@H](C(=O)O)CSSC12CCCCC2 (stereo in doubt; 6) [listing 1 of 2 here] the Ratio [6] was under 16.7.
N[C@@H](Cc1ccc(O)cc1)C(=O)N[C@H]1C(=O)NCC(=O)N[C@@H](Cc2ccccc2)C(=O)N[C@H](C(=O)O)CSSC12CCCCC2 (stereo in doubt; 6) [listing 2 of 2 here] showed an IC50 (Mus musculus) of over 4240 nM, a Ki [7] of 683 nM and a Ki (Mu-type opioid receptor [8]) of 4010 nM. The Ki [9] was 387 nM and the IC50 (Cavia porcellus) was 70900 nM.
